Experimental findings from ChEMBL document CHEMBL3526083, “Prediction of relative in vivo metabolite exposure from in vitro data using two model drugs: dextromethorphan and omeprazole” (Drug Metab Dispos, 2012) are described below.

The structures appear in SMILES notation.

Format in all cases: ADME
Data set [1] has as its system Liver microsome. Put plainly: Drug metabolism in human liver microsomes assessed as dextrophan-O-glucuronide formation measured as plasma fraction unbound in presence of 2% BSA. For orientation: Liver microsomes are vesicles of endoplasmic reticulum, rich in cytochrome P450 enzymes.
The subject of data set [2] is Liver microsome. The data set can be described thus: Drug metabolism in human liver microsomes assessed as 3-hydroxymorphinan formation measured as microsomal fraction unbound.
The target of data set [3] is T1, UDP-glucuronosyltransferase 2B4 (Homo sapiens, UniProt P06133).
T1 sequence (P06133 whole entry): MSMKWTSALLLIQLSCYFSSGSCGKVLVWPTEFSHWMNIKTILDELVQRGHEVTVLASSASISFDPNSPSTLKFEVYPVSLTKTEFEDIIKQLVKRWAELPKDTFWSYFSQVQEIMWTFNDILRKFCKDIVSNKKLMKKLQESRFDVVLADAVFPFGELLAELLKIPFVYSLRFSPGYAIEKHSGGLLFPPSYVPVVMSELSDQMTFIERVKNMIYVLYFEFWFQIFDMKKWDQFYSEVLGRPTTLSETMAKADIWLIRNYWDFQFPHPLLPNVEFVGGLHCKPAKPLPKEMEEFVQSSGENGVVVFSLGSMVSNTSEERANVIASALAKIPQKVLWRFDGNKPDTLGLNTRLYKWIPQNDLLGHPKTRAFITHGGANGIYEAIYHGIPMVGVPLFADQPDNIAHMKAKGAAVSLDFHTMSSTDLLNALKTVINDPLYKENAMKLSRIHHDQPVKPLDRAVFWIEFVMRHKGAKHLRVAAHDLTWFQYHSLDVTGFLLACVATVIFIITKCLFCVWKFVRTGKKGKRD
The data set can be described thus: Drug metabolism assessed as recombinat UGT2B4 (unknown origin) -mediated dextrophan-O-glucuronide formation.

Data set [4] has as its target T2, UDP-glucuronosyltransferase 2B15 (Homo sapiens, UniProt P54855).
T2 sequence (P54855 whole entry): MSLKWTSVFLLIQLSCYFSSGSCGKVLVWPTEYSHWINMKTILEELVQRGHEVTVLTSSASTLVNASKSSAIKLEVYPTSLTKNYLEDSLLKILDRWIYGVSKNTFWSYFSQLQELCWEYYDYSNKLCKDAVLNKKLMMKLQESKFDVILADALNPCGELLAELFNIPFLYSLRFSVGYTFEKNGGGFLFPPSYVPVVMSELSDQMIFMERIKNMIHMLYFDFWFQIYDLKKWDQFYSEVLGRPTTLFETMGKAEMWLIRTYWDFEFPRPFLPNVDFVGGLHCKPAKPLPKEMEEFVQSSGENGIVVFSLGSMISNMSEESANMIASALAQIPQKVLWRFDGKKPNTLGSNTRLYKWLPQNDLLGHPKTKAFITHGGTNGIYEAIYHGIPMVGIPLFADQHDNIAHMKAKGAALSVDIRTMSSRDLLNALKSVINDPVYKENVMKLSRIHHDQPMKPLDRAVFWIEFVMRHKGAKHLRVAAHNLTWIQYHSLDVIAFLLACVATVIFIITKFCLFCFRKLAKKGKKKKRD
The data set can be described thus: Drug metabolism assessed as recombinat UGT2B15 (unknown origin) -mediated dextrophan-O-glucuronide formation.

Data set [5] concerns Liver microsome. The data set can be described thus: Drug metabolism in human liver microsomes assessed as dextrophan-O-glucuronide formation measured as intrinsic clearance.
Data set [6] addresses T3, UDP-glucuronosyltransferase 2B7 (Homo sapiens, UniProt P16662).
T3 sequence (P16662 whole entry): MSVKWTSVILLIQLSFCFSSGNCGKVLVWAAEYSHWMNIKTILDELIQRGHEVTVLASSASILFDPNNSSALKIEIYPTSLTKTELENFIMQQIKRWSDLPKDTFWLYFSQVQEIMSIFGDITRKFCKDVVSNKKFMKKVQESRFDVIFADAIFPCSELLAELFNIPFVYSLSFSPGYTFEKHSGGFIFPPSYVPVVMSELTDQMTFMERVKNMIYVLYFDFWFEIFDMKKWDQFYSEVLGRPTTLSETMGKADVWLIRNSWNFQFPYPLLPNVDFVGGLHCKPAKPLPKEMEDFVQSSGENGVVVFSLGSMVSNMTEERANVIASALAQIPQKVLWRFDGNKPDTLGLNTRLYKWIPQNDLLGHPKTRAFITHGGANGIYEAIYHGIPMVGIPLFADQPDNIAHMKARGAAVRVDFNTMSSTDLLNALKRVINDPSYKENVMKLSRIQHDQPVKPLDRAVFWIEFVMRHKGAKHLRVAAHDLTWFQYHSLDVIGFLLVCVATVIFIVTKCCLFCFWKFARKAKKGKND
Put plainly: Drug metabolism assessed as recombinat UGT2B7 (unknown origin) -mediated dextrophan-O-glucuronide formation.

Data set [7] has as its target T4, UDP-glucuronosyltransferase 1A10 (Homo sapiens, UniProt Q9HAW8).
T4 sequence (Q9HAW8 whole entry): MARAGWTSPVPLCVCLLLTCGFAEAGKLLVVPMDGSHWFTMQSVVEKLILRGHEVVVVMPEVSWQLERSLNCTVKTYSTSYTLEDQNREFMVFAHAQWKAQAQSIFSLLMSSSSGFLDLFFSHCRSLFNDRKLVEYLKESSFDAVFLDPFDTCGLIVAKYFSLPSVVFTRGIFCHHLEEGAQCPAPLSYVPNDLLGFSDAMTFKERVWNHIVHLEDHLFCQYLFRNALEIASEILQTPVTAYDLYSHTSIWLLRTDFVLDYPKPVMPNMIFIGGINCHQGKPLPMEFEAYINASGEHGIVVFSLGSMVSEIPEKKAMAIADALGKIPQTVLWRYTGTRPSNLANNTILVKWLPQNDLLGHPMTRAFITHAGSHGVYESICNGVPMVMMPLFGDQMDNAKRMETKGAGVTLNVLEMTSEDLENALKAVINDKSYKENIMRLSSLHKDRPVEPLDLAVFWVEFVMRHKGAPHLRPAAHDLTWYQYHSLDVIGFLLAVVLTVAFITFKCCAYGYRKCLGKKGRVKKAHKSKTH
Put plainly: Drug metabolism assessed as recombinat UGT1A10 (unknown origin) -mediated dextrophan-O-glucuronide formation.

The target in data set [8] is T5, UDP-glucuronosyltransferase 1A7 (Homo sapiens, UniProt Q9HAW7).
T5 sequence (Q9HAW7 whole entry): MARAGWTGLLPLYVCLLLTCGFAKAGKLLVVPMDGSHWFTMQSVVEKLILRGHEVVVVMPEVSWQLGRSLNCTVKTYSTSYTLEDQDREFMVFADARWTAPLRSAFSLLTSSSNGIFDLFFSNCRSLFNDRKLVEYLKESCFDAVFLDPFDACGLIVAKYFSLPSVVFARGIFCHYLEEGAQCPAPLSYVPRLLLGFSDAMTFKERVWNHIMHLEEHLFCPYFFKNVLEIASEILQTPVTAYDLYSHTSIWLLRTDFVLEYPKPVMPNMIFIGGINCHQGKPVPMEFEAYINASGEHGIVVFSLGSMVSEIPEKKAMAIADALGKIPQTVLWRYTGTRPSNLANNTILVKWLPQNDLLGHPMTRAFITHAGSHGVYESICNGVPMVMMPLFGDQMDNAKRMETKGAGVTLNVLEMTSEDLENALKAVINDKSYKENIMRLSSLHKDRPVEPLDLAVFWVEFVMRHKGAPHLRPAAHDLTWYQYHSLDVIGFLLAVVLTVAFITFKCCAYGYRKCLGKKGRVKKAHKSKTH
Put plainly: Drug metabolism assessed as recombinat UGT1A7 (unknown origin) -mediated dextrophan-O-glucuronide formation.

Data set [9] has as its system Liver microsome. Put plainly: Drug metabolism in human liver microsomes assessed as dextrophan-O-glucuronide formation measured as intrinsic unbound clearance.

Take `CN1CC[C@@]23CCCC[C@@H]2[C@@H]1Cc1ccc(O)cc13` [DEXTRORPHAN]: the figures for the Fu in [1] and in data set [2] were 0.55 and 1, respectively. Also, the Drug metabolism result is on record as “metabolite_detected” in [3]; “metabolite_detected” in data set [4]; “metabolite_detected” in data set [6]; “metabolite_not_detected” in [7]; “metabolite_not_detected” in data set [8]. In [5], the CLH came out at 2.9 µL/min/mg. Also, in [9], the CL free is 2.9 µL/min/mg.
